Laboratory results reported in patent publication US9145437B2, “Urea compounds” (Eli Lilly and Company, priority 2013, dated 2015).

Assays:
[1] = biological target: T1, mouse SGLT1 (Mus musculus, UniProt Q8C3K6); assay: Sodium-dependent 14C-AMG uptake assay in CHO-K1 cells expressing mouse SGLT1; format: cell-based; conditions: n=5
T1 construct: expressed in transfected cells
T1 sequence (Q8C3K6 1-665): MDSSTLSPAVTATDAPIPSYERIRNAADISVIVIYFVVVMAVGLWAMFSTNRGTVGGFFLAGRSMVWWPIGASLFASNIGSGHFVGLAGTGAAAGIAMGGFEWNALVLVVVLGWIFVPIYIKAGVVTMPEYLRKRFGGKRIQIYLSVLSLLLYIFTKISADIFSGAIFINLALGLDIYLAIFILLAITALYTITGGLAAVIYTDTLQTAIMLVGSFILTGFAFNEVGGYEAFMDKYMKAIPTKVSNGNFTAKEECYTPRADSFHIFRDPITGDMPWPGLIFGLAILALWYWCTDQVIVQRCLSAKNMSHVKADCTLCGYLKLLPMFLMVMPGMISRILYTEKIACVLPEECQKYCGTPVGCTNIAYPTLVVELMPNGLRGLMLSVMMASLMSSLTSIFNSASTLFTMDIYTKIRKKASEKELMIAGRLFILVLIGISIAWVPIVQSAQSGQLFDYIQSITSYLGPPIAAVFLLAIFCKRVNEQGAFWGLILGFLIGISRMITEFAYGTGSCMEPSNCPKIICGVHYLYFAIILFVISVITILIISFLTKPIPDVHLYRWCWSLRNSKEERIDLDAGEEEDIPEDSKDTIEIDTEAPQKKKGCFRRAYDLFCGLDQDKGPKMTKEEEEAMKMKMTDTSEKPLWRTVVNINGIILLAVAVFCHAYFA
Excerpt: (§1) The cDNA encoding human SGLT1 (slc5al, NM_000343) and mouse SGLT1 (slc5al, NM_019810.4) are purchased from Openbiosystems, Invitrogen and Openbiosystems, respectively. The cDNA is cloned into pcDNA3.1+ for mammalian expression and is stably transfected into Chinese hamster ovary (CHO)-K1 cells using standard mammalian transfection procedures. An SGLT-expressing sub-clone of each over-expressing cell line is selected based on resistance to neomycin (Geneticin, Invitrogen) and activity in the ^14C-α-methyl-D-glucopyranoside (^14C-AMG) uptake assay (see below). Stable SGLT-expressing cells are maintained using standard cell culture techniques.
(§2) The SGLT activity is measured as sodium-dependent ^14C-AMG uptake in the above cell lines described as follows. One hundred μL of culture medium containing 30,000 cells are seeded to each well of a 96-well BioCoat poly-D-lysine plate (Becton Dickson) and cultured at 37° C. overnight. The culture medium is aspirated and cells are washed twice with 200 μL of Reaction Buffer (140 mM NaCl, 2 mM KCl, 1 mM CaCl2, MgCl2, and 14 mM N-2-hydroethylpiperrazine-N′-2-ethanesulfonic acid (Hepes), pH 7.5). The excess buffer is tapped out onto paper towels. Thirty-five μL of Reaction Buffer are added to each well. […] After mixing, the scintillation signal in the plate is counted in a MicroBeta (PerkinElmer). […]

[2] = biological target: T2, human SGLT1 (Homo sapiens, UniProt P13866); assay: Sodium-dependent 14C-AMG uptake assay in CHO-K1 cells expressing human SGLT1; format: cell-based; conditions: n=5
T2 construct: expressed in transfected cells
T2 sequence (P13866 1-664): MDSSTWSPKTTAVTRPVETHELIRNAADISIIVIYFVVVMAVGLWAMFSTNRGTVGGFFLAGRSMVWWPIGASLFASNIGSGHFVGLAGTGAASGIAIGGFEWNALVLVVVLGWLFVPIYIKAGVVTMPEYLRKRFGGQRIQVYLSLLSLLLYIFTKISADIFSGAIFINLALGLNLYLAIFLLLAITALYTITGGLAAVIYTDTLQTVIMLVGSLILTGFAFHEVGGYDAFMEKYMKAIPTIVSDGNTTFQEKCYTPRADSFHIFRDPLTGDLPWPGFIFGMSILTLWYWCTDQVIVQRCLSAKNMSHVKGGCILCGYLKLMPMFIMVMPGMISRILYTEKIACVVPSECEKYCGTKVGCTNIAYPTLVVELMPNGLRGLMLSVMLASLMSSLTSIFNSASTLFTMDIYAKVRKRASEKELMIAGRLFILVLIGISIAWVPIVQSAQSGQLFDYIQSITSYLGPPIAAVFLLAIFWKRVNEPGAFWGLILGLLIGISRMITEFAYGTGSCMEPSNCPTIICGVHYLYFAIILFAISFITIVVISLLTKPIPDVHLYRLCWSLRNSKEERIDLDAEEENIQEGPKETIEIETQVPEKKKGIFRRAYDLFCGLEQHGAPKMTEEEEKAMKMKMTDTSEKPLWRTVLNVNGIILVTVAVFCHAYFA
Excerpt: as §1, §2

[3] = test system: C57Bl/6 mice; assay: Glucose lowering effects in oral glucose tolerance test (OGTT); format: in vivo, mouse; design: Baseline Adjusted AUC (glucose): unit not given here; conditions: for Glucose 20 Minute / Glucose 40 Minute / Glucose 60 Minute / Baseline Adjusted AUC (glucose) / Glucose Cmax / Glucose Tmax / Glucose 0 Minute: 10 mg/kg oral, Mean ± SEM; for Glucose 20 Minute: 20 min after 3 g/kg dextrose; for Glucose 40 Minute: 40 min after 3 g/kg dextrose; for Glucose 60 Minute: 60 min after 3 g/kg dextrose; for Glucose 0 Minute: baseline before 3 g/kg dextrose
Experimental: The test compound is formulated by adding a vehicle of 1% hydroxyethylcellulose, 0.25% Tween® 80 w/antifoam 0.05% to preweighed test compound to make a 1 mg/ml solution. The mixture is probe sonicated for approximately 1 minute. A stir bar is added, and the resulting suspension is stirred continuously throughout dosing.
The first set of mice receiving an OGTT 18 hours after compound administration, the second 8 hours after compound administration. The first set of animals are weighed and body weights used to determine study groups (n=5), within a working range of 26-30 g. After grouping, the mice are orally gavaged with 10 ml/kg of test compound preparation or vehicle, thirty seconds apart. […] Both sets, 18 and 8 hour OGTT, of mice are then fasted overnight by removing access to food, late afternoon before test day. The following morning, the 8 hour OGTT mice are weighed and bled (via tail snip) for glucose. Study groups (n=5) are determine using fasted glucose values, within a working range of 80-100 mg/dl. After grouping the mice are orally gavaged with compound, thirty seconds apart. These mice then receive an OGTT 8 hours after compound administration.
At eight and eighteen hours after each respective compound treatment is started, a baseline blood sample is taken for measuring glucose (from the first animal). The animal is then immediately given an oral dose of 50% dextrose (Hospira®) at 3 g/kg. Blood samples are taken for glucose, exactly thirty seconds apart, by tail vein so that blood is collected in each animal at 20, 40, and 60 minutes after the dextrose dose.

IC50 [1]: 14.9 ± 10.4 nM
IC50 [2]: 35.2 ± 14.1 nM
SMILES: Cc1cccc2c1c(Cc1ccc(OCCCN3CCCC4(CCN(C(=O)CNC(=O)NCC(C)C)CC4)C3)cc1)cn2[C@@H]1O[C@H](CO)[C@@H](O)[C@H](O)[C@H]1O [Example 1, 1-isobutyl-3-[2-[4-[3-[4-[[4-methyl-1-[(2R,3R,4S,5S,6R)-3,4,5-trihydroxy-6-(hydroxymethyl)tetrahydropyran-2-yl]indol-3-yl]methyl]phenoxy]propyl]-4,9-diazaspiro[5.5]undecan-9-yl]-2-oxo-ethyl]urea]
Glucose 20 Minute ([3]; OGTT 8 hrs post dose): 114 ± 3.36 mg/dL
Glucose 40 Minute ([3]; OGTT 8 hrs post dose): 131 ± 6.81 mg/dL
Glucose 60 Minute ([3]; OGTT 8 hrs post dose): 125.8 ± 7.52 mg/dL
Baseline Adjusted AUC (glucose) ([3]; OGTT 8 hrs post dose): 2370 ± 315
Glucose Cmax ([3]; OGTT 8 hrs post dose): 132.9 ± 6.68 mg/dL
Glucose Tmax ([3]; OGTT 8 hrs post dose): 44 ± 7.48 min
Glucose 0 Minute ([3]; OGTT 8 hrs post dose): 75.8 ± 2.48 mg/dL
Glucose 20 Minute ([3]; OGTT 18 hrs post dose): 121.4 ± 5.16 mg/dL
Glucose 40 Minute ([3]; OGTT 18 hrs post dose): 127 ± 9.78 mg/dL
Glucose 60 Minute ([3]; OGTT 18 hrs post dose): 125 ± 7.27 mg/dL
Baseline Adjusted AUC (glucose) ([3]; OGTT 18 hrs post dose): 2258 ± 252
Glucose Cmax ([3]; OGTT 18 hrs post dose): 134.2 ± 6.72 mg/dL
Glucose Tmax ([3]; OGTT 18 hrs post dose): 44 ± 7.48 min
Glucose 0 Minute ([3]; OGTT 18 hrs post dose): 79.2 ± 4.51 mg/dL
glucose excursion after oral bolus of 50% dextrose ([3]; normal glycemic C57Bl/6 mouse, eight or eighteen hours after administration): decrease
